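Five compound concentrations were applied to cells in 96-well plates for 48 hours; endpoints were derived by simple linear interpolation of the resulting dose-response curve. GI50 = concentration required for 50% inhibition of growth. TGI: concentration producing complete growth inhibition.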
Assays:
Assay in all cases: inhibition of tumour cell growth, NCI panel, 48 h
CAKI-1 renal = system: CAKI-1 renal
SNB-75 CNS = system: SNB-75 CNS
UACC-62 melanoma = system: UACC-62 melanoma
NCI/ADR-RES ovarian = system: NCI/ADR-RES ovarian
A549 NSCLC = system: A549 NSCLC
NCI-H23 lung = system: NCI-H23 lung
SF-295 CNS = system: SF-295 CNS
HCC-2998 colon = system: HCC-2998 colon
SF-268 CNS = system: SF-268 CNS
NCI-H460 lung = system: NCI-H460 lung
OVCAR-8 ovarian = system: OVCAR-8 ovarian
MDA-MB-231 breast = system: MDA-MB-231 breast
SK-MEL-2 melanoma = system: SK-MEL-2 melanoma
MCF7 breast = system: MCF7 breast
SF-539 CNS = system: SF-539 CNS
A498 renal = system: A498 renal
K-562 leukemia = system: K-562 leukemia
OVCAR-5 ovarian = system: OVCAR-5 ovarian
MALME-3M melanoma = system: MALME-3M melanoma
COLO 205 colon = system: COLO 205 colon
SK-MEL-5 melanoma = system: SK-MEL-5 melanoma
PC-3 prostate = system: PC-3 prostate
HT29 colon = system: HT29 colon
HCT-15 colon = system: HCT-15 colon
786-0 renal = system: 786-0 renal
HS 578T breast = system: HS 578T breast
SNB-19 CNS = system: SNB-19 CNS
HOP-62 NSCLC = system: HOP-62 NSCLC
NCI-H522 lung = system: NCI-H522 lung
RXF 393 renal = system: RXF 393 renal
KM12 colon = system: KM12 colon
OVCAR-4 ovarian = system: OVCAR-4 ovarian
HCT-116 colon = system: HCT-116 colon
LOX IMVI melanoma = system: LOX IMVI melanoma
HL-60(TB) leukemia = system: HL-60(TB) leukemia
SR leukemia = system: SR leukemia
M14 melanoma = system: M14 melanoma
SK-OV-3 ovarian = system: SK-OV-3 ovarian
OVCAR-3 ovarian = system: OVCAR-3 ovarian
NCI-H226 lung = system: NCI-H226 lung
CCRF-CEM leukemia = system: CCRF-CEM leukemia
UACC-257 melanoma = system: UACC-257 melanoma
UO-31 renal = system: UO-31 renal
T-47D breast = system: T-47D breast
ACHN renal = system: ACHN renal
IGROV1 ovarian = system: IGROV1 ovarian
BT-549 breast = system: BT-549 breast
U251 CNS = system: U251 CNS
DU-145 prostate = system: DU-145 prostate
SK-MEL-28 melanoma = system: SK-MEL-28 melanoma
MOLT-4 leukemia = system: MOLT-4 leukemia
HOP-92 NSCLC = system: HOP-92 NSCLC
SW-620 colon = system: SW-620 colon
SN12C renal = system: SN12C renal
EKVX NSCLC = system: EKVX NSCLC
MDA-MB-468 breast = system: MDA-MB-468 breast
TK-10 renal = system: TK-10 renal
MDA-MB-435 = system: MDA-MB-435
RPMI-8226 leukemia = system: RPMI-8226 leukemia

`COc1ccc(C(=O)COc2ccc(NC(=O)Nc3ccc(Cl)c(C(F)(F)F)c3)cc2)cc1` was tested, and the GI50 (CAKI-1 renal) was 4.36 µM, the TGI (CAKI-1 renal) was > 100 µM and the GI50 (SNB-75 CNS) was 1.67 µM. The TGI (SNB-75 CNS) was 14.3 µM, the GI50 (UACC-62 melanoma) was 2.79 µM and the TGI (UACC-62 melanoma) was 9.38 µM. For the same compound, the GI50 (NCI/ADR-RES ovarian) was 3.69 µM, the TGI (NCI/ADR-RES ovarian) was > 100 µM and the GI50 (A549 NSCLC) was 3.2 µM. The TGI (A549 NSCLC) was > 100 µM, the GI50 (NCI-H23 lung) was 4.52 µM and the TGI (NCI-H23 lung) was > 100 µM. For the same compound, the GI50 (SF-295 CNS) was 3.35 µM, the TGI (SF-295 CNS) was 25.9 µM and the GI50 (HCC-2998 colon) was 3.8 µM. The TGI (HCC-2998 colon) was 34.2 µM, the GI50 (SF-268 CNS) was 4.04 µM and the TGI (SF-268 CNS) was > 100 µM. For the same compound, the GI50 (NCI-H460 lung) was 3.34 µM, the TGI (NCI-H460 lung) was > 100 µM and the GI50 (OVCAR-8 ovarian) was 4.21 µM. For the same compound, the TGI (OVCAR-8 ovarian) was > 100 µM, the GI50 (MDA-MB-231 breast) was 3.81 µM and the TGI (MDA-MB-231 breast) was 26.1 µM. The GI50 (SK-MEL-2 melanoma) was 2.86 µM, the TGI (SK-MEL-2 melanoma) was 34.4 µM and the GI50 (MCF7 breast) was 2.6 µM. For the same compound, the TGI (MCF7 breast) was > 100 µM, the GI50 (SF-539 CNS) was 4.12 µM and the TGI (SF-539 CNS) was 26.4 µM. It also gave a GI50 (A498 renal) of 2.74 µM, a TGI (A498 renal) of 9.86 µM and a GI50 (K-562 leukemia) of 4.92 µM. For the same compound, the TGI (K-562 leukemia) was > 100 µM, the GI50 (OVCAR-5 ovarian) was 5.24 µM and the TGI (OVCAR-5 ovarian) was > 100 µM. It also gave a GI50 (MALME-3M melanoma) of 2.84 µM, a TGI (MALME-3M melanoma) of 18.2 µM and a GI50 (COLO 205 colon) of 3.08 µM. For the same compound, the TGI (COLO 205 colon) was > 100 µM, the GI50 (SK-MEL-5 melanoma) was 3.14 µM and the TGI (SK-MEL-5 melanoma) was 19.7 µM. The GI50 (PC-3 prostate) was 3.08 µM, the TGI (PC-3 prostate) was > 100 µM and the GI50 (HT29 colon) was 4.49 µM. The TGI (HT29 colon) was > 100 µM, the GI50 (HCT-15 colon) was 3.09 µM and the TGI (HCT-15 colon) was > 100 µM. For the same compound, the GI50 (786-0 renal) was 4.57 µM, the TGI (786-0 renal) was 24.5 µM and the GI50 (HS 578T breast) was 2.89 µM. It also gave a TGI (HS 578T breast) of 9.97 µM, a GI50 (SNB-19 CNS) of 3.86 µM and a TGI (SNB-19 CNS) of 22.7 µM. It also gave a GI50 (HOP-62 NSCLC) of 6.69 µM, a TGI (HOP-62 NSCLC) of 96.4 µM and a GI50 (NCI-H522 lung) of 2.96 µM. The TGI (NCI-H522 lung) was > 100 µM, the GI50 (RXF 393 renal) was 4.29 µM and the TGI (RXF 393 renal) was 15.3 µM. The GI50 (KM12 colon) was 2.88 µM, the TGI (KM12 colon) was 8.71 µM and the GI50 (OVCAR-4 ovarian) was 2.87 µM. For the same compound, the TGI (OVCAR-4 ovarian) was 17.9 µM, the GI50 (HCT-116 colon) was 3.87 µM and the TGI (HCT-116 colon) was > 100 µM. The GI50 (LOX IMVI melanoma) was 3.2 µM, the TGI (LOX IMVI melanoma) was > 100 µM and the GI50 (HL-60(TB) leukemia) was 3.09 µM. For the same compound, the TGI (HL-60(TB) leukemia) was 22.7 µM, the GI50 (SR leukemia) was 3.13 µM and the TGI (SR leukemia) was > 100 µM. For the same compound, the GI50 (M14 melanoma) was 2.72 µM, the TGI (M14 melanoma) was > 100 µM and the GI50 (SK-OV-3 ovarian) was 8.07 µM. For the same compound, the TGI (SK-OV-3 ovarian) was > 100 µM, the GI50 (OVCAR-3 ovarian) was 3.3 µM and the TGI (OVCAR-3 ovarian) was > 100 µM. The GI50 (NCI-H226 lung) was 3.61 µM, the TGI (NCI-H226 lung) was 21 µM and the GI50 (CCRF-CEM leukemia) was 3.71 µM. The TGI (CCRF-CEM leukemia) was > 100 µM, the GI50 (UACC-257 melanoma) was 2.95 µM and the TGI (UACC-257 melanoma) was > 100 µM. For the same compound, the GI50 (UO-31 renal) was 3.75 µM, the TGI (UO-31 renal) was > 100 µM and the GI50 (T-47D breast) was 3.06 µM. For the same compound, the TGI (T-47D breast) was 92.3 µM, the GI50 (ACHN renal) was 3.35 µM and the TGI (ACHN renal) was > 100 µM. For the same compound, the GI50 (IGROV1 ovarian) was 6 µM, the TGI (IGROV1 ovarian) was > 100 µM and the GI50 (BT-549 breast) was 4.38 µM. It also gave a TGI (BT-549 breast) of 40.8 µM, a GI50 (U251 CNS) of 3.71 µM and a TGI (U251 CNS) of 26.1 µM. The GI50 (DU-145 prostate) was 5.78 µM, the TGI (DU-145 prostate) was > 100 µM and the GI50 (SK-MEL-28 melanoma) was 3.39 µM. The TGI (SK-MEL-28 melanoma) was 33.9 µM, the GI50 (MOLT-4 leukemia) was 2.84 µM and the TGI (MOLT-4 leukemia) was > 100 µM. For the same compound, the GI50 (HOP-92 NSCLC) was 3.08 µM, the TGI (HOP-92 NSCLC) was 10 µM and the GI50 (SW-620 colon) was 5.3 µM. The TGI (SW-620 colon) was > 100 µM, the GI50 (SN12C renal) was 4.8 µM and the TGI (SN12C renal) was > 100 µM. The GI50 (EKVX NSCLC) was 3.15 µM, the TGI (EKVX NSCLC) was 16.6 µM and the GI50 (MDA-MB-468 breast) was 2.8 µM. The TGI (MDA-MB-468 breast) was 8.67 µM, the GI50 (TK-10 renal) was 7.9 µM and the TGI (TK-10 renal) was > 100 µM. For the same compound, the GI50 (MDA-MB-435) was 3.63 µM, the TGI (MDA-MB-435) was > 100 µM and the GI50 (RPMI-8226 leukemia) was 3.45 µM. The TGI (RPMI-8226 leukemia) was > 100 µM.

Source: PubChem BioAssay (NCI)
